Laboratory results as given in US20090018134A1, “Compounds - 945” (AstraZeneca AB, priority 2007, published 2009).
pIC50: −log10 of the molar value.

Target: T1, mTOR (Homo sapiens, UniProt P42345)
T1 construct: FLAG; made in house
Assay: In Vitro mTOR Kinase Assay (Echo), Test (a)(ii)
Assay type: biochemical
Settings: table of enzyme assay Test (a)(ii); read-out: Test (a)(ii) IC50
How it was run: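 Inhibition expressed as IC50 from an AlphaScreen read-out: phospho-T389 p70 S6K antibody plus streptavidin donor/protein A acceptor beads, left overnight in the dark. The kinase reaction ran 2 h at room temperature, then was stopped with EDTA. Enzyme: FLAG-purified mTOR 1362-2549 fragment from stable HEK293 cells.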

T1 sequence (P42345 1362-2549): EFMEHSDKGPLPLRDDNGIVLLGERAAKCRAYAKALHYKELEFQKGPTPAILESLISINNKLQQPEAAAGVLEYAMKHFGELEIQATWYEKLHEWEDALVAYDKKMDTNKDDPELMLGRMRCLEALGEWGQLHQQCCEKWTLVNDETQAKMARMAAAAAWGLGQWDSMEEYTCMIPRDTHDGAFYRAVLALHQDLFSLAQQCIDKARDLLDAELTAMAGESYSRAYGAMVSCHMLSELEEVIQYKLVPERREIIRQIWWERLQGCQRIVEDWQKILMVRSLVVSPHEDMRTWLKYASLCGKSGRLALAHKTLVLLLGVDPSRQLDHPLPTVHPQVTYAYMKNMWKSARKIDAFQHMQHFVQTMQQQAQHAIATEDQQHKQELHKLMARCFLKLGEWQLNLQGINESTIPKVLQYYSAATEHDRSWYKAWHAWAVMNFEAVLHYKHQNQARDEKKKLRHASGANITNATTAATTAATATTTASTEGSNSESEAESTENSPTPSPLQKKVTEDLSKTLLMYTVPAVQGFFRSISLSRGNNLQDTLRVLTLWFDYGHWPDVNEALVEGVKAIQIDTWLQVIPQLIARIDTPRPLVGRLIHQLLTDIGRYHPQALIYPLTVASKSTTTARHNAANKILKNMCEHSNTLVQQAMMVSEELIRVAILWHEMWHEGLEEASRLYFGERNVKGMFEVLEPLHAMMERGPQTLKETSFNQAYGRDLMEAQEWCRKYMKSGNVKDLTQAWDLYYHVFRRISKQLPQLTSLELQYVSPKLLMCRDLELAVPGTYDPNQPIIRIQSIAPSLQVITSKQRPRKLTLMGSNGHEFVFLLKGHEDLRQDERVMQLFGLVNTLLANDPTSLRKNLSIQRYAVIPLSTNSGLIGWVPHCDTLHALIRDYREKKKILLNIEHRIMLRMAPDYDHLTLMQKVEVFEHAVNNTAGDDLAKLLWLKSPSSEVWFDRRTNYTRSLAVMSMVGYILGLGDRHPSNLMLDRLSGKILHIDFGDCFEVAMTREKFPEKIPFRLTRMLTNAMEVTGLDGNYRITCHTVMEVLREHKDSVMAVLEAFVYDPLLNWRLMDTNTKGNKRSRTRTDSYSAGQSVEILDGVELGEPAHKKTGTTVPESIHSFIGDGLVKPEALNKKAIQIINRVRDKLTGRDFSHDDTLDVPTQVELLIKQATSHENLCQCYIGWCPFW

| SMILES | pIC50 |
| --- | --- |
| CC[C@H]1COCCN1c1cc(C2(S(=O)(=O)c3ccccc3)CC2)nc(-c2ccc(NC(=O)Nc3cnn(C)c3)cc2)n1 [Example 74e, 1-[4-[4-[1-(benzenesulfonyl)cyclopropyl]-6-[(3S)-3-ethylmorpholin-4-yl]pyrimidin-2-yl]phenyl]-3-(1-methylpyrazol-4-yl)urea] | 8.30 |
| CC[C@H]1COCCN1c1cc(C2(S(=O)(=O)c3ccccc3)CC2)nc(-c2ccc(NC(=O)N[C@@H](C)CO)cc2)n1 [Example 74f, 1-[4-[4-[1-(benzenesulfonyl)cyclopropyl]-6-[(3S)-3-ethylmorpholin-4-yl]pyrimidin-2-yl]phenyl]-3-[(2S)-1-hydroxypropan-2-yl]urea] | 8.40 |
| CC[C@H]1COCCN1c1cc(C2(S(=O)(=O)c3ccccc3)CC2)nc(-c2ccc(NC(=O)N[C@H](C)CO)cc2)n1 [Example 74g, 1-[4-[4-[1-(benzenesulfonyl)cyclopropyl]-6-[(3S)-3-ethylmorpholin-4-yl]pyrimidin-2-yl]phenyl]-3-[(2R)-1-hydroxypropan-2-yl]urea] | 8.36 |
| CC[C@H]1COCCN1c1cc(C2(S(=O)(=O)c3ccccc3)CC2)nc(-c2ccc(NC(=O)NCCCO)cc2)n1 [Example 74h, 1-[4-[4-[1-(benzenesulfonyl)cyclopropyl]-6-[(3S)-3-ethylmorpholin-4-yl]pyrimidin-2-yl]phenyl]-3-(3-hydroxypropyl)urea] | 8.49 |
| CC[C@H]1COCCN1c1cc(C2(S(=O)(=O)c3ccccc3)CC2)nc(-c2ccc(NC(=O)NCC3(O)CC3)cc2)n1 [Example 74i, 1-[4-[4-[1-(benzenesulfonyl)cyclopropyl]-6-[(3S)-3-ethylmorpholin-4-yl]pyrimidin-2-yl]phenyl]-3-[(1-hydroxycyclopropyl)methyl]urea] | 8.03 |
| Cc1nn(C(F)F)c(C)c1S(=O)(=O)C1(c2cc(N3CCOC[C@@H]3C)nc(-c3ccc(NC(=O)NC4CC4)cc3)n2)CC1 [Example 75, 3-Cyclopropyl-1-[4-[4-[1-[1-(difluoromethyl)-3,5-dimethylpyrazol-4-yl]sulfonylcyclopropyl]-6-[(3S)-3-methylmorpholin-4-yl]pyrimidin-2-yl]phenyl]urea] | 7.54 |
| CNC(=O)Nc1ccc(-c2nc(N3CCOC[C@@H]3C)cc(C3(S(=O)(=O)c4c(C)nn(C(F)F)c4C)CC3)n2)cc1 [Example 75a, 1-[4-[4-[1-[1-(difluoromethyl)-3,5-dimethylpyrazol-4-yl]sulfonylcyclopropyl]-6-[(3S)-3-methylmorpholin-4-yl]pyrimidin-2-yl]phenyl]-3-methylurea] | 7.36 |
| CCNC(=O)Nc1ccc(-c2nc(N3CCOC[C@@H]3C)cc(C3(S(=O)(=O)c4c(C)nn(C(F)F)c4C)CC3)n2)cc1 [Example 75b, 3-[4-[4-[1-[1-(difluoromethyl)-3,5-dimethylpyrazol-4-yl]sulfonylcyclopropyl]-6-[(3S)-3-methylmorpholin-4-yl]pyrimidin-2-yl]phenyl]-1-ethylurea] | 7.42 |
| Cc1nn(C(F)F)c(C)c1S(=O)(=O)C1(c2cc(N3CCOC[C@@H]3C)nc(-c3ccc(NC(=O)NCCO)cc3)n2)CC1 [Example 75c, 1-[4-[4-[1-[1-(difluoromethyl)-3,5-dimethylpyrazol-4-yl]sulfonylcyclopropyl]-6-[(3S)-3-methylmorpholin-4-yl]pyrimidin-2-yl]phenyl]-3-(2-hydroxyethyl)urea] | 7.47 |
| Cc1nn(C(F)F)c(C)c1S(=O)(=O)C1(c2cc(N3CCOC[C@@H]3C)nc(-c3ccc(NC(=O)NCC(F)F)cc3)n2)CC1 [Example 75d, 3-(2,2-difluoroethyl)-1-[4-[4-[1-[1-(difluoromethyl)-3,5-dimethylpyrazol-4-yl]sulfonylcyclopropyl]-6-[(3S)-3-methylmorpholin-4-yl]pyrimidin-2-yl]phenyl]urea] | 7.40 |
| Cc1nn(C(F)F)c(C)c1S(=O)(=O)C1(c2cc(N3CCOC[C@@H]3C)nc(-c3ccc(NC(=O)NCCF)cc3)n2)CC1 [Example 75e, 1-[4-[4-[1-[1-(difluoromethyl)-3,5-dimethylpyrazol-4-yl]sulfonylcyclopropyl]-6-[(3S)-3-methylmorpholin-4-yl]pyrimidin-2-yl]phenyl]-3-(2-fluoroethyl)urea] | 7.43 |
| Cc1nn(C(F)F)c(C)c1S(=O)(=O)C1(c2cc(N3CCOC[C@@H]3C)nc(-c3ccc(NC(=O)Nc4cnn(C)c4)cc3)n2)CC1 [Example 75f, 1-[4-[4-[1-[1-(difluoromethyl)-3,5-dimethylpyrazol-4-yl]sulfonylcyclopropyl]-6-[(3S)-3-methylmorpholin-4-yl]pyrimidin-2-yl]phenyl]-3-(1-methylpyrazol-4-yl)urea] | 7.22 |
| C[C@H]1COCCN1c1cc(C2(S(=O)(=O)c3ccccc3Cl)CC2)nc(-c2ccc(NC(=O)NC3CC3)cc2)n1 [Example 76, 1-[4-[4-[1-(2-Chlorophenyl)sulfonylcyclopropyl]-6-[(3S)-3-methylmorpholin-4-yl]pyrimidin-2-yl]phenyl]-3-cyclopropylurea] | 8.16 |
| C[C@H]1COCCN1c1cc(C2(S(=O)(=O)c3ccc(C#N)cc3)CC2)nc(-c2ccc(NC(=O)NC3CC3)cc2)n1 [Example 77, 1-[4-[4-[1-(4-Cyanophenyl)sulfonylcyclopropyl]-6-[(3S)-3-methylmorpholin-4-yl]pyrimidin-2-yl]phenyl]-3-cyclopropylurea] | 8.09 |

Continued, values first:

| pIC50 | SMILES |
| --- | --- |
| 8.39 | CNC(=O)Nc1ccc(-c2nc(N3CCOC[C@@H]3C)cc(C3(S(=O)(=O)c4ccccc4Cl)CC3)n2)cc1 [Example 76a, 1-[4-[4-[1-(2-chlorophenyl)sulfonylcyclopropyl]-6-[(3S)-3-methylmorpholin-4-yl]pyrimidin-2-yl]phenyl]-3-methylurea] |
| 8.14 | CCNC(=O)Nc1ccc(-c2nc(N3CCOC[C@@H]3C)cc(C3(S(=O)(=O)c4ccccc4Cl)CC3)n2)cc1 [Example 76b, 3-[4-[4-[1-(2-chlorophenyl)sulfonylcyclopropyl]-6-[(3S)-3-methylmorpholin-4-yl]pyrimidin-2-yl]phenyl]-1-ethylurea] |
| 8.50 | C[C@H]1COCCN1c1cc(C2(S(=O)(=O)c3ccccc3Cl)CC2)nc(-c2ccc(NC(=O)NCCO)cc2)n1 [Example 76c, 1-[4-[4-[1-(2-chlorophenyl)sulfonylcyclopropyl]-6-[(3S)-3-methylmorpholin-4-yl]pyrimidin-2-yl]phenyl]-3-(2-hydroxyethyl)urea] |
| 8.03 | C[C@H]1COCCN1c1cc(C2(S(=O)(=O)c3ccccc3Cl)CC2)nc(-c2ccc(NC(=O)NCC(F)F)cc2)n1 [Example 76d, 1-[4-[4-[1-(2-chlorophenyl)sulfonylcyclopropyl]-6-[(3S)-3-methylmorpholin-4-yl]pyrimidin-2-yl]phenyl]-3-(2,2-difluoroethyl)urea] |
| 8.25 | C[C@H]1COCCN1c1cc(C2(S(=O)(=O)c3ccccc3Cl)CC2)nc(-c2ccc(NC(=O)NCCF)cc2)n1 [Example 76e, 1-[4-[4-[1-(2-chlorophenyl)sulfonylcyclopropyl]-6-[(3S)-3-methylmorpholin-4-yl]pyrimidin-2-yl]phenyl]-3-(2-fluoroethyl)urea] |
| 8.17 | C[C@H]1COCCN1c1cc(C2(S(=O)(=O)c3ccccc3Cl)CC2)nc(-c2ccc(NC(=O)Nc3cnn(C)c3)cc2)n1 [Example 76f, 1-[4-[4-[1-(2-chlorophenyl)sulfonylcyclopropyl]-6-[(3S)-3-methylmorpholin-4-yl]pyrimidin-2-yl]phenyl]-3-(1-methylpyrazol-4-yl)urea] |
